From PMC4033654 (Journal of Medicinal Chemistry, 2014)

Tests used:
[1] = test system: TDP1; details: cited from earlier work
[2] = test system: MDR-1; details: cited from earlier work
[3] = test system: ABCG2; details: cited from earlier work
[4] = test system: HOP-62; details: read-out: cytotoxicity GI50, lung HOP-62; cited from earlier work
[5] = test system: MCF-7; details: read-out: cytotoxicity GI50, breast MCF-7; cited from earlier work
[6] = test system: HCT-116; details: read-out: cytotoxicity GI50, colon HCT-116; cited from earlier work
[7] = test system: DU-145; details: read-out: cytotoxicity GI50, prostate DU-145; cited from earlier work
[8] = test system: SN12C; details: read-out: cytotoxicity GI50, renal SN12C; cited from earlier work
[9] = test system: UACC-62; details: read-out: cytotoxicity GI50, melanoma UACC-62; cited from earlier work
[10] = test system: OVCAR-3; details: read-out: cytotoxicity GI50, ovarian OVCAR-3; cited from earlier work
[11] = biological target: recombinant TDP1 (Homo sapiens, UniProt Q9NUW8); assay: Gel-based assay measuring the inhibition of recombinant TDP1; type: biochemical
recombinant TDP1, sequence (Q9NUW8 whole entry): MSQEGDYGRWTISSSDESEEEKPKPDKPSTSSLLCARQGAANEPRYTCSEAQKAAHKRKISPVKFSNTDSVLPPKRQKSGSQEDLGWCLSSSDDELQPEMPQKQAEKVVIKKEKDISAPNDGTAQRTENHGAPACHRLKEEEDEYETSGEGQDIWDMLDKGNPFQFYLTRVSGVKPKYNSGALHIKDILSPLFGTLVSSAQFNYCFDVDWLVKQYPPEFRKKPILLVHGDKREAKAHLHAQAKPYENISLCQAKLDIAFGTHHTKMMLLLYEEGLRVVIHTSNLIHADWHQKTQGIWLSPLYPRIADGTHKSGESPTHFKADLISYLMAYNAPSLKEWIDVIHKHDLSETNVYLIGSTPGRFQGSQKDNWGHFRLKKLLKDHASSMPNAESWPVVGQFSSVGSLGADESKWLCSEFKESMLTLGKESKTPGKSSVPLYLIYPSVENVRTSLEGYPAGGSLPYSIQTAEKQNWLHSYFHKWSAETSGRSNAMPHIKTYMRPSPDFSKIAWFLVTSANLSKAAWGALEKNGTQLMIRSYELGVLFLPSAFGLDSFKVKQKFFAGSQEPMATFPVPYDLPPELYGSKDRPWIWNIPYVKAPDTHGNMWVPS

[12] = test system: all human cancer cell lines successfully tested; assay: NCI60 anti-proliferative screen, all cell lines; type: cell-based

N=C(N)c1ccc(-c2ccc(-c3ccc(C(=N)N)cc3)o2)cc1 [Furamidine (8), Furamidine]
TDP1 inhibitor potency [1]: micromolar-range

COc1cc2c3c(n(CCCN4CCOCC4)c(=O)c2cc1OC)-c1cc2c(cc1C3=O)OCO2 [Indotecan (6), indotecan]
substrate for the MDR-1 efflux pump [2]: not a substrate
substrate for the ABCG2 efflux pump [3]: not a substrate

COc1cc2c3c(n(CCCNCCO)c(=O)c2cc1OC)-c1cc2c(cc1C3=O)OCO2 [compound 5]
GI50 [4]: 20 nM
GI50 [5]: < 10 nM
GI50 [6]: 100 nM
GI50 [7]: < 10 nM
GI50 [8]: < 10 nM
GI50 [9]: 30 nM
GI50 [10]: 500 nM

COc1cc2c(=O)n(CCCN3CCOCC3)c3c(c2cc1O)C(=O)c1cc2c(cc1-3)OCO2 [compound 13]
GI50 [5]: 100 nM

C=CCOc1cc2c3c(n(CCCN4CCOCC4)c(=O)c2cc1OC)-c1cc2c(cc1C3=O)OCO2 [compound 15, 2-(Allyloxy)-3-methoxy-6-(3-morpholinopropyl)-5H-[1,3]dioxolo[4′,5′:5,6]indeno [1,2-c]isoquinoline-5,12(6H)-dione]
TDP1 inhibitory activity [11]: no detectable TDP1 inhibitory activity
GI50 against various cell lines [12]: submicromolar

COc1cc2c(=O)n(CCCN3CCOCC3)c3c(c2cc1OCCCN)C(=O)c1cc2c(cc1-3)OCO2.Cl [compound 17, 2-(3-Aminopropoxy)-3-methoxy-6-(3-morpholinopropyl)-5H-[1,3]dioxolo[4′,5′:5,6]indeno[1,2-c]isoquinoline-5,12(6H)-dione]
GI50 against various cell lines [12]: submicromolar

COc1cc2c(=O)n(CCCN3CCOCC3)c3c(c2cc1OCCCN1CCOCC1)C(=O)c1cc2c(cc1-3)OCO2 [compound 20, 3-Methoxy-2-(3-morpholinopropoxy)-6-(3-morpholinopropyl)-5H-[1,3]dioxolo[4′,5′:5,6]indeno[1,2-c]isoquinoline-5,12(6H)-dione]
TDP1 inhibitory activity [11]: no TDP1 inhibitory activity
GI50 against various cell lines [12]: submicromolar

COc1cc2c(=O)n(CCCN3CCOCC3)c3c(c2cc1OCCCN1CCN(C)CC1)C(=O)c1cc2c(cc1-3)OCO2 [compound 21, 3-Methoxy-2-(3-(4-methylpiperazin-1-yl)propoxy)-6-(3-morpholinopropyl)-5H-[1,3]dioxolo[4′,5′:5,6]indeno[1,2-c]isoquinoline-5,12(6H)-dione]
TDP1 inhibitory activity [11]: no TDP1 inhibitory activity

COc1cc2c(=O)n(CCCN3CCOCC3)c3c(c2cc1OCCCN1CCCCC1)C(=O)c1cc2c(cc1-3)OCO2 [compound 22, 3-Methoxy-6-(3-morpholinopropyl)-2-(3-(piperidin-1-yl)propoxy)-5H-[1,3]dioxolo[4′,5′:5,6]indeno[1,2-c]isoquinoline-5,12(6H)-dione]
GI50 against various cell lines [12]: low micromolar

COC(=O)COc1cc2c3c(n(CCCN4CCOCC4)c(=O)c2cc1OC)-c1cc2c(cc1C3=O)OCO2 [compound 24, Methyl 2-((3-Methoxy-6-(3-morpholinopropyl)-5,12-dioxo-6,12-dihydro-5H-[1,3]dioxolo[4′,5′:5,6]indeno[1,2-c]isoquinolin-2-yl)oxy)acetate]
GI50 against various cell lines [12]: low micromolar

COc1cc2c3c(n(CCCn4ccnc4)c(=O)c2cc1OC)-c1cc2c(cc1C3=O)OCO2 [indimitecan (7), indimitecan]
substrate for the MDR-1 efflux pump [2]: less affected than the camptothecins
substrate for the ABCG2 efflux pump [3]: less affected than the camptothecins
